Where “and” joins values, the source holds several entries; their conditions need not be identical. Equal entries are not always repeated. Entries after “also recorded” stand apart in the source; their conditions may differ.
Assays:
Format in all cases: biochemical
[1] = ORAC(o) assay (dissolved oxygen, oxygen radical absorbance capacity)
Protocol: Method of Measuring Antioxidant Activity. In operation, the ORAC(o) assay of the present invention was used to evaluate antioxidant compositions, combinations and the like of solutions against a target molecule (linoleic acid) with oxygen present at equilibrium with the air. A free radical initiator is added and the time it takes for oxygen to disappear is measured, yielding the rate of disappearance. Trolox® is used as the standard, and a blank is run as a control. Amount of dissolved oxygen vs. time is plotted allowing direct comparison of net areas under the curve. A detailed method is as follows: Buffers (K2HPO4 (F.W. 174.2), NaH2PO4 (FW 120.0)) were obtained from Sigma (St. Louis, Mo.). Linoleic acid 99%, Trolox® (6-hydroxy-2,5,7,8-tetramethylchroman-2-carboxylic acid) 97%, TWEEN® 20, and 2,2'-azobis (2-methylpropionamidine) dihydrochloride 97% (AAPH), were obtained from Aldrich (Milwaukee, Wis.). HPLC grade acetone was obtained from Fisher (Hampton, […] biological oxygen meter was obtained from YSI (Yellow Springs, Ohio) and used according to the manufacturer's specifications. ORAC(o) Method. The following stock solutions were used. […] Weigh 65.33 g into 500 mL of volumetric flask, and add dH20 to the mark. Concentration is 750 mM. Store 750 mM K2HPO4 stock solution in a refrigerator (2 to 8° C.) equipped with a calibrated thermometer. Target temperature is 4° C. 750 mM NaH2PO4 (FW 120.0); Weigh 45.00 g into 500 mL of volumetric flask, and add dH20 to the mark. Concentration is 750 mM. Store 750 mM NaH2PO4 stock solution in a refrigerator (2 to 8° C.) equipped with a calibrated thermometer. Target temperature is 4° C. Mix 40 ml of 750 mM K2HPO4 stock solution and 10 ml of 750 mM NaH2PO4 stock solution (4 to 1 ratio). […] Store stock solution in a refrigerator (2 to 8° C.) equipped with a calibrated thermometer. Target temperature is 4° C. Dilute mixture with dH20 (1:9) to make working solution of ORAC buffer, and measure pH. It should be 7.4. Keep covered at room temperature until ready to use. Tween Preparation. Weigh out 10 g of Tween 20, and add 90 g of deionized water. Cover and stir the mixture overnight. Tween stock solution keeps for one week. Keep on countertop. Solvent Preparation. Mix 25 mL of acetone, 25 mL of deionized water, and 25 mL of Tween 20. Use this solvent to prepare samples. Before a run is performed: the probe should be inspected for damage paying particular attention to the membrane, replace if needed. Probes should be stored with the tips in deionized water. Only one probe and one reaction chamber should be used for this assay. Run a blank and Trolox® (at 10 μg/ml or 0.03995 μmol/ml) every 8 hours. […] The sample concentration and Trolox® concentration should be the same. The dilutions are prepared by weighing out 1 mg of sample and adding 1 ml of solvent to perform the initial extraction. Shake for one hour, place 0.5 ml of the initial extraction solution in a glass scintillation vial, and then add 4.5 ml of solvent, making the first dilution. Vortex the first dilution for about 30 seconds. Its concentration is 0.1 mg/ml or 100 ppm. Take 0.5 ml of the first dilution, put it into another glass scintillation vial, and then add 4.5 ml of solvent, vortex for about 30 seconds, to yield a concentration of 0.01 mg/ml or 10 ppm. Take 0.5 ml of the vial sample and put it into another glass scintillation vial, and then add 4.5 ml of solvent, vortex for about 30 seconds, to yield a concentration of […] are placed in a 4° C. refrigerator. In a 37° C. water bath allow linoleic acid to thaw, and prepare linoleic acid solution (with minimal light) by adding 0.18 mL Tween stock solution, 0.18 mL buffer, and 0.44 mL deionized water to 70.8 mg linoleic acid. Keep solution tube wrapped in foil. Make linoleic acid solution fresh every 8 hours. To prepare the oxygen radical generator, weigh 67.8 mg of AAPH, and dissolve in 0.9 mL buffer. Keep AAPH refrigerated, it may be used for up to eight hours. Shake for 1 hour. […]

[2] = ORAC(fl) assay (fluorescein, method of Ou et al.); conditions: mixed at different ratios with quercetin, standard acetone:water
Protocol: Prior Art Method of Measuring Antioxidant Activity for Comparison. For the ORAC(fl) assay, the method of Ou et al. (Ou , B., Hampsch-Woodill, M. and Prior, R. L., J. Agric. Food Chem. 2001, 49, 4619-4626) was followed. Differences from the Ou procedure as published included the speed of the orbital shaker (Ou, 400 rpm; herein, 280 rpm), and the centrifuge speed (Ou, 14,000 rpm, 15 min; herein, 3200 rpm, 15 min and the length of the assay (Ou, 30 min; herein, 100 min). Fluorescein, sodium salt, was obtained from Aldrich (Milwaukee, Wis.). For the Ou method, a standard amount of fluorescein is added to an antioxidant product being tested, and the beginning level of fluorescence is measured. A free radical initiator is added, and the time and degree of disappearance of fluorescence are measured. Trolox®, 6-Hydroxy-2,5,7,8-tetramethylchroman-2-carboxylic Acid, is a cell-permeable, water-soluble derivative of vitamin E with potent antioxidant properties. Trolox® prevents peroxynitrite-mediated oxidative stress and apoptosis in rat thymocytes and is a synthetic antioxidant that is consistent from lot-to-lot and is used as the standard and run for comparison with each sample. A blank (control) used in calculations of the ORAC(o) value for each samples may be included in each run. Fluorescence vs. time is plotted. The blank (control) is subtracted from every curve. […]

ORAC(fl-lipo) assay = test: ORAC(fl-lipo) assay
Description: FIGS. 12A and 12B are graphs of ORAC(fl-lipo) results using mixed-tocopherol and the relative AUC results using the solvent/water/detergent solution to dissolve the sample and detect both lipohilic and lipophobic anti-oxidant capacity.

SMILES	Area Under Curve (AUC), 5 Day Mean ([1]; quercetin sample 10 μg/mL)	Area under curve, 5 Run Mean ([1]; quercetin sample 10 μg/mL)	Area Under Curve (AUC), 5 day trial for precision ([1]; quercetin sample 10 μg/mL, each day average of 3 runs)	Area under curve, single day trial for precision ([1]; quercetin sample 10 μg/mL, separate runs)	Area Under Curve ([1]; sample 1 μg/ml)	Area Under Curve ([1]; sample 10 μg/ml)	Area Under Curve ([1]; sample 100 μg/ml)	Area Under Curve ([1]; sample 500 μg/ml)	Area Under Curve ([1]; sample 1000 μg/ml)	contribution to AO activity [2]	ORAC(fl-lipo) AUC, acetone:water:Tween-20 versus acetone:water (ORAC(fl-lipo) assay)
O=c1c(O)c(-c2ccc(O)c(O)c2)oc2cc(O)cc(O)c12 [quercetin]	203.7	202.9	202.7 and 212.9 and 187 and 202.9 and 213.1	207.4 and 198.2 and 205 and 201.6 and 202.1	124.6	209.4	693.6	2328	2870		
Cc1c(C)c2c(c(C)c1O)CC[C@@](C)(CCC[C@H](C)CCC[C@H](C)CCCC(C)C)O2 [α-tocopherol]										no contribution to AO activity; also recorded: no statistically significant activity could be detected	large increase in the AUC

Source: patent US20050214413A1, “Methods and compositions for modified release of nutritional supplements” (Mannatech, Inc., priority 2003, published 2005)
